For orientation: pIC50 means the negative decadic logarithm of the IC50, by convention in mol/L. Broadly, the solubility is the concentration that dissolves in the medium under given conditions. As a reminder, the inhibition is the relative decrease from the control value, in per cent. For orientation: AUC(0-inf) means the area under the concentration-time curve extrapolated to infinity. By clearance is commonly meant the volume of plasma or blood freed of the substance per unit of time.

The values below come from ChEMBL document CHEMBL4043150, “Discovery of novel pyrazolo[1,5-a]pyridine-based EP1 receptor antagonists by scaffold hopping: Design, synthesis, and structure-activity relationships” (Bioorg Med Chem Lett, 2017).

pIC50: −log10 of the molar value. The source made the active and inactive calls. The calls are words filed in the database; no cut-off is given here.

Data set [1] concerns the target T1, Prostaglandin E2 receptor EP1 subtype (Rattus norvegicus, UniProt P70597).
T1 sequence (P70597 whole entry): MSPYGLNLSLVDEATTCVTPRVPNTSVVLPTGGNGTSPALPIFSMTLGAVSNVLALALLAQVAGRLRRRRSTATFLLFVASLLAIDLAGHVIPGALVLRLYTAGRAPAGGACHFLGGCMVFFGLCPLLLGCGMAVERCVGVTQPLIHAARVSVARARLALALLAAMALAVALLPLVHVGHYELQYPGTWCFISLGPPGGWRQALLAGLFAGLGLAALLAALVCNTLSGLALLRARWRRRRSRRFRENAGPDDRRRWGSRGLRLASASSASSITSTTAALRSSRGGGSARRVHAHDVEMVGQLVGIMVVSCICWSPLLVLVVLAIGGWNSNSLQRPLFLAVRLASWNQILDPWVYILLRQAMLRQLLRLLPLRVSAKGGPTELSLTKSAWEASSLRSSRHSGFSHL
The data set is described as follows: Antagonist activity at rat His-tagged EP1 receptor expressed in African green monkey COS1 cells assessed as reduction in PGE2-induced increase in intracellular calcium level preincubated for 60 secs followed by PGE2 addition measured for 60 secs by Fluo 4-AM dye-based fluorescence assay. It counts as functional, cell-based. A general note: Calcium assays in cells follow changes in intracellular calcium, usually with a dye or a luminescent sensor.

Data set [2] in a line: Aqueous solubility of compound. The format is physicochemical. To be noted: buffer.
Data set [3] concerns the target T2, Prostaglandin E2 receptor EP1 subtype (Rattus norvegicus) (UniProt P70597).
T2 sequence (whole entry): T1 sequence (P70597 whole entry)
As to the kind of experiment: Antagonist activity at rat His-tagged EP1 receptor expressed in African green monkey COS1 cells assessed as reduction in PGE2-induced increase in intracellular calcium level at 10 uM preincubated for 60 secs followed by PGE2 addition measured for 60 secs by Fluo 4-AM dye-based fluorescence assay relative to control. It counts as functional, cell-based.

Data set [4] is described as follows: AUC (0 to infinity) in rat at 1 mg/kg, iv. It counts as ADME, organism-based. Further details: dose 1 mg/kg, time infinity, route intravenous. The settings on record: in vivo.
Data set [5] can be described thus: Initial plasma concentration in rat at 1 mg/kg, iv. It counts as ADME, organism-based.
The next data set has as its system Rattus norvegicus. The data set is described as follows: Suppression of 17-PTP-induced bladder contraction in Wistar rat assessed as change in intravesical pressure at 1 mg/kg, iv pretreated for 5 mins followed by 17-PTP administration for 9 times with 30 mins time interval up to 245 mins post dose. It counts as functional, organism-based.
Data set [6] is described as follows: Volume of distribution at steady state in rat at 1 mg/kg, iv. The format is ADME, organism-based. To be noted: in vivo, read-out: Vdss.
A short description of data set [7]: Total clearance in rat at 1 mg/kg, iv. The format is ADME, organism-based. To be noted: in vivo.

For `O=C(O)c1cccc(Cc2c(-c3ccoc3)nn3cc(Cl)ccc23)n1`, in data set [1], the pIC50 is 6.89.

Regarding `COc1cccc(-c2nn3cc(Cl)ccc3c2Cc2cccc(C(=O)O)n2)c1`, the negative-log IC50 (pIC50) in data set [1] was 6.10.

In the case of `O=C(O)c1cccc(Cc2c(N3CCCC3)nn3cc(Cl)ccc23)n1`, the pIC50 in data set [1] was 5.74.

Consider `O=C(O)c1cccc(Cc2c(-c3ccccc3Cl)nn3cc(Cl)ccc23)n1`, for which the pIC50 in data set [1] is 6.19.

In data set [2], `Cc1cc(C(=O)O)nn1Cc1cc(Cl)cc2cc(-c3ccccc3)nn12` returned a solubility above 75 µM.

Regarding `CC(C)Cc1nn2cc(Cl)ccc2c1Cc1cccc(C(=O)O)n1`, in data set [1], the pIC50 is 6.70.

On to `N#Cc1ccc2c(Cc3cccc(C(=O)O)n3)c(-c3ccccc3)nn2c1`, for which the pIC50 in data set [1] is 6.36.

In the case of `COc1cccc2c(Cc3cccc(C(=O)O)n3)c(-c3ccccc3)nn12`, the inhibition in data set [3] is 33%.

On to `O=C(O)c1cccc(Cc2c(N3CCSCC3)nn3cc(Cl)ccc23)n1`, for which the pIC50 in data set [1] is 6.59.

Regarding `CS(=O)(=O)c1ccc2c(Cc3cccc(C(=O)O)n3)c(-c3ccccc3)nn2c1`, in data set [1], the pIC50 was 5.27.

The compound `COc1ccc2c(Cc3cccc(C(=O)O)n3)c(-c3ccccc3)nn2c1` displayed an AUC(0-inf) in data set [4] of 2780 ng·h/mL. In data set [5], this compound gave a C0 of 2660 ng/mL. Also, the result in the data set with Rattus norvegicus was Active. Moreover, the solubility in data set [2] was above 75 µM. For the same compound, in data set [6], the Vd worked out at 0.45 L/kg. The clearance in data set [7] came out at 6.12 mL/min/kg.

In the case of `O=C(O)c1cccc(Cc2c(-c3ccccc3)nn3cc(Cl)ccc23)n1`, the area under the curve AUC(0-inf) in data set [4] came out at 1590 ng·h/mL. Further, the C0 in data set [5] was determined as 2750 ng/mL. In addition, the outcome with Rattus norvegicus was Active. In addition, the Vd in data set [6] was determined as 0.489 L/kg. Further, the clearance in data set [7] was found to be 10.7 mL/min/kg.

For the compound `O=C(O)c1cccc(Cc2c(N3CCOCC3)nn3cc(Cl)ccc23)n1`, the negative logarithm of the IC50 (pIC50) in data set [1] was 6.13.

Take `O=C(O)c1cccc(Cc2c(-c3ccccc3)nn3cc(F)ccc23)n1`: the pIC50 in data set [1] was 6.42.

For the compound `O=C(O)c1cccc(Cc2c(-c3ccccc3)nn3ccccc23)n1`, the pIC50 in data set [1] is 5.64.

For the compound `COc1ccn2nc(-c3ccccc3)c(Cc3cccc(C(=O)O)n3)c2c1`, the pIC50 in data set [1] is 5.04.

Turning to `COc1ccccc1-c1nn2cc(Cl)ccc2c1Cc1cccc(C(=O)O)n1`, the inhibition in data set [3] worked out at 29%.

For the compound `COc1ccc2c(Cc3cncc(C(=O)O)n3)c(-c3ccccc3)nn2c1`, the pIC50 in data set [1] was 5.35.

As to `O=C(O)c1cccc(Cc2c(-c3ccsc3)nn3cc(Cl)ccc23)n1`, in data set [1], the pIC50 is 6.96.

Consider `O=C(O)c1cccc(Cc2c(C3CC3)nn3cc(Cl)ccc23)n1`, for which the negative logarithm of the IC50 (pIC50) in data set [1] was 5.82.

As for `CC(=O)c1ccc2c(Cc3cccc(C(=O)O)n3)c(-c3ccccc3)nn2c1`, in data set [1], the negative logarithm of the IC50 (pIC50) is 5.96.

On to `O=C(O)c1cccc(Cc2c(-c3cccc(Cl)c3)nn3cc(Cl)ccc23)n1`, for which the pIC50 in data set [1] is 6.32.

On to `O=C(O)c1cccc(Cc2c(C3CCCCC3)nn3cc(Cl)ccc23)n1`, for which, in data set [1], the pIC50 is 5.92.

With `O=C(O)c1cccc(Cc2c(-c3ccc(Cl)cc3)nn3cc(Cl)ccc23)n1`, in data set [1], the pIC50 was 5.96.

In the case of `O=C(O)c1cccc(Cc2c(-c3ccccc3)nn3cc(C(F)(F)F)ccc23)n1`, the negative-log IC50 (pIC50) in data set [1] is 7.80. The AUC(0-inf) in data set [4] was determined as 4360 ng·h/mL. Further, the C0 in data set [5] was 2430 ng/mL. For the same compound, in the data set on Rattus norvegicus, the result was Active. In addition, in data set [6], the Vd was 0.473 L/kg. Moreover, the clearance in data set [7] worked out at 3.84 mL/min/kg.

As to `O=C(O)c1cccc(Cc2c(-c3ccccc3)nn3cc(C4CC4)ccc23)n1`, the pIC50 in data set [1] was 6.72.

As to `C=C(C)c1ccc2c(Cc3cccc(C(=O)O)n3)c(-c3ccccc3)nn2c1`, in data set [1], the pIC50 is 6.54.

With `O=C(O)c1cccc(Cc2c(-c3cccs3)nn3cc(Cl)ccc23)n1`, in data set [1], the pIC50 is 5.96.

Regarding `COc1ccc(-c2nn3cc(Cl)ccc3c2Cc2cccc(C(=O)O)n2)cc1`, the pIC50 in data set [1] is 5.27.

As for `O=C(O)c1cccc(Cc2c(-c3ccco3)nn3cc(Cl)ccc23)n1`, in data set [1], the pIC50 was 5.92.

Regarding `O=C(O)c1cccc(Cc2c(N3CCCCCC3)nn3cc(Cl)ccc23)n1`, the pIC50 in data set [1] was 5.85.
